Results published in ChEMBL document CHEMBL5442334, “ASAP - In vitro safety pharmacology profile” (2024).

What was measured:
Conditions in all cases: Test compound concentration 10.0 uM
[1] = biological target: T1, Muscarinic acetylcholine receptor M1 (Homo sapiens) (UniProt P11229); experiment: SafetyScreen: M1 Human Acetylcholine (Muscarinic) GPCR Binding Antagonist Radioligand LeadHunter Assay, catalogue number: 91
T1 sequence (whole entry): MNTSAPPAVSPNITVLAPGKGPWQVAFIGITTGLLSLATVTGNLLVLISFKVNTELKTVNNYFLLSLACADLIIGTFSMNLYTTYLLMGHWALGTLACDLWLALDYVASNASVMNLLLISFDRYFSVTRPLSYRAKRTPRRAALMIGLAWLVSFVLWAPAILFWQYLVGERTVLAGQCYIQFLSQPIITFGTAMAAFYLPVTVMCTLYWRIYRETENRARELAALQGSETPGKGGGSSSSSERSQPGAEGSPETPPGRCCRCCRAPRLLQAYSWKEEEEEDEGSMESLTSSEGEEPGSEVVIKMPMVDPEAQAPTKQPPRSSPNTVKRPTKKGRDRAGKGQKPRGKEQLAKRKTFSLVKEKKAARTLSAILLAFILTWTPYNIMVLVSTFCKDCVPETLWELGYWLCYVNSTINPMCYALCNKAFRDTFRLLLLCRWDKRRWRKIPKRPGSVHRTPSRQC

[2] = biological target: Tyrosine-protein kinase Lck (Homo sapiens) (UniProt P06239); experiment: SafetyScreen: Lck Human TK Kinase Enzymatic TR-FRET [Km ATP] LeadHunter Assay, catalogue number: 2906; assay type: functional
Tyrosine-protein kinase Lck (Homo sapiens), sequence (P06239 2-509 limits assumed): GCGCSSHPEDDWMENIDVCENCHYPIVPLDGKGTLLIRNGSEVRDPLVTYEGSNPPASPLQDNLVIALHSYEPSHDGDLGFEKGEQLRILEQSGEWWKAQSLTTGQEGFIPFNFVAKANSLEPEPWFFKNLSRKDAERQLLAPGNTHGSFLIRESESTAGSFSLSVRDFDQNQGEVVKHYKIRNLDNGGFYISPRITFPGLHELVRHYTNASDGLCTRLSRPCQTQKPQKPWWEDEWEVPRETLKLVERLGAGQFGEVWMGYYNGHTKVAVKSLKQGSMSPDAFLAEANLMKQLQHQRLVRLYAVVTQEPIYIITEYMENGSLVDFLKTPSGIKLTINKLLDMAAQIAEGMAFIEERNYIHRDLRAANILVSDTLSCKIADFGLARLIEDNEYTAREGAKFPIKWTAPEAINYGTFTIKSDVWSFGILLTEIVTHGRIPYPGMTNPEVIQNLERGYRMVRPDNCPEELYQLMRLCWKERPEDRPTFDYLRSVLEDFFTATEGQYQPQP

[3] = biological target: Sodium-dependent noradrenaline transporter (Homo sapiens) (UniProt P23975); experiment: SafetyScreen: NET Human Norepinephrine Transporter Binding Antagonist Radioligand LeadHunter Assay, catalogue number: 355
Sodium-dependent noradrenaline transporter (Homo sapiens), sequence (P23975 whole entry): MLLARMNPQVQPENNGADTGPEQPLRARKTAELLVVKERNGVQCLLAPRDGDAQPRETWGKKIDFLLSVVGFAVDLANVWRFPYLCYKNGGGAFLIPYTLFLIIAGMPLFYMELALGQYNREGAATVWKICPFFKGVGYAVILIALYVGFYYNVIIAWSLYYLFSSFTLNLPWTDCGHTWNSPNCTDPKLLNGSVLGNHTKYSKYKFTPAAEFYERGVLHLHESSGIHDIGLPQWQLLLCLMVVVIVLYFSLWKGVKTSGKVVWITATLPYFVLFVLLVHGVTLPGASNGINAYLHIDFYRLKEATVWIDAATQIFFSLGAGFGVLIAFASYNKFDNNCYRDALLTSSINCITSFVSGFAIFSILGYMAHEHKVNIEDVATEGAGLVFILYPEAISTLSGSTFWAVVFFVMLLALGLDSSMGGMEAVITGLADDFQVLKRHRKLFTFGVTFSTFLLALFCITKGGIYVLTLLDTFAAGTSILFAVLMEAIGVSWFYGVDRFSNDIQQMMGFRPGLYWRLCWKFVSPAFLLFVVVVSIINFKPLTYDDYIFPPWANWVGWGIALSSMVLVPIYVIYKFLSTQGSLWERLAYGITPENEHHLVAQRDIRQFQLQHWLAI

[4] = biological target: T2, Prostaglandin G/H synthase 2 (Homo sapiens) (UniProt P35354); experiment: SafetyScreen: COX2 Human Cyclooxygenase Enzymatic LeadHunter Assay, catalogue number: 4186; assay type: functional
T2 sequence (whole entry): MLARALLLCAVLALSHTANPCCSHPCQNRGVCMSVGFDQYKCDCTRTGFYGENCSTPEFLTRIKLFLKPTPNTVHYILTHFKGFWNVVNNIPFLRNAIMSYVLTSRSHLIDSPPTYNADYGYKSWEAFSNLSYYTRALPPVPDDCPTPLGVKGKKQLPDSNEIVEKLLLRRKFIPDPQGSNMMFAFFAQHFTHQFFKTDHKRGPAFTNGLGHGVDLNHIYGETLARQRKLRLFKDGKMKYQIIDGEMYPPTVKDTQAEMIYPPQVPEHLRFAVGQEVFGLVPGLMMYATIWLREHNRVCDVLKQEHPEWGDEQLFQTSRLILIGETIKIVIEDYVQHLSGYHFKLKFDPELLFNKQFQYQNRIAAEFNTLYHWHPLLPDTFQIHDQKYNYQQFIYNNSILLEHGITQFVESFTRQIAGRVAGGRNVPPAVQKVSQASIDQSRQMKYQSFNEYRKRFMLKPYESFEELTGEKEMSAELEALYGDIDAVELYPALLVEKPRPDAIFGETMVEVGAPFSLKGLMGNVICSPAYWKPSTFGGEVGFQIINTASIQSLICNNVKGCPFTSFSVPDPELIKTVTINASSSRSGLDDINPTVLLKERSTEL

[5] = biological target: D(2) dopamine receptor (Homo sapiens) (UniProt P14416); experiment: SafetyScreen: D2S Human Dopamine GPCR Binding Agonist Radioligand LeadHunter Assay, catalogue number: 1322
D(2) dopamine receptor (Homo sapiens), sequence (P14416 whole entry): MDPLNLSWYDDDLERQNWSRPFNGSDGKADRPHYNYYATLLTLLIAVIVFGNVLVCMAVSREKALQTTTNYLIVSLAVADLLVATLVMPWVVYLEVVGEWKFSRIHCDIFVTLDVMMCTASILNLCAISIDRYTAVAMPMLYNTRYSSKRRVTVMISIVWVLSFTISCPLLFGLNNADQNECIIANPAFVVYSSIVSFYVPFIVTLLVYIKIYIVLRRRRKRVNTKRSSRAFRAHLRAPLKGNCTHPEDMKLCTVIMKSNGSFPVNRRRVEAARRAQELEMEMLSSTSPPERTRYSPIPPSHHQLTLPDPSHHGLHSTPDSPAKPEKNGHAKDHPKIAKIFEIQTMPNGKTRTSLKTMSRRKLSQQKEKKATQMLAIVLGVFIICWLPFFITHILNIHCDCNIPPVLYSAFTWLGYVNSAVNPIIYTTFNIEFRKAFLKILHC

[6] = biological target: T3, Alpha-2A adrenergic receptor (Homo sapiens) (UniProt P08913); experiment: SafetyScreen: alpha2A Human Adrenoceptor GPCR Binding Antagonist Radioligand LeadHunter Assay, catalogue number: 13
T3 sequence (whole entry): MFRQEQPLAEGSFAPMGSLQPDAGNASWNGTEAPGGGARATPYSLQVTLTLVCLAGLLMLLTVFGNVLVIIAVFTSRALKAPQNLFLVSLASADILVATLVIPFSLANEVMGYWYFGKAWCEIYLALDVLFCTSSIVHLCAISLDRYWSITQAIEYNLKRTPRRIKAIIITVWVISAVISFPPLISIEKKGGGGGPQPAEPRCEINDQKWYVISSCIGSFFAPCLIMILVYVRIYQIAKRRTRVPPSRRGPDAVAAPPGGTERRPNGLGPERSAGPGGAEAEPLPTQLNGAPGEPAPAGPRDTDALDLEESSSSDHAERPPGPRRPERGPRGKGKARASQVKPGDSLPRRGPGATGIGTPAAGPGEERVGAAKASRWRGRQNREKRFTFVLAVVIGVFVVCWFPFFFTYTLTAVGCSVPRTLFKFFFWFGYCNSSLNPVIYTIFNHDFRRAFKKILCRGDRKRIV

[7] = biological target: GABA-A receptor; anion channel (Rattus norvegicus) (UniProt O09028+P15431+P18506+P18508+P19969+P20236+P23574+P23576+P28471+P28473+P30191+P62813+P63079+P63138+Q91ZM7+Q9ES14); experiment: SafetyScreen: GABAA (Non-Selective) Rat Ion Channel [3H] Flunitrazepam Binding Agonist Radioligand LeadHunter Assay, catalogue number: 28; assay type: protein-complex assay
[8] = biological target: T4, Glucocorticoid receptor (Homo sapiens) (UniProt P04150); experiment: SafetyScreen: GR Human Glucocorticoid NHR Binding Agonist Radioligand LeadHunter Assay, catalogue number: 469
T4 sequence (whole entry): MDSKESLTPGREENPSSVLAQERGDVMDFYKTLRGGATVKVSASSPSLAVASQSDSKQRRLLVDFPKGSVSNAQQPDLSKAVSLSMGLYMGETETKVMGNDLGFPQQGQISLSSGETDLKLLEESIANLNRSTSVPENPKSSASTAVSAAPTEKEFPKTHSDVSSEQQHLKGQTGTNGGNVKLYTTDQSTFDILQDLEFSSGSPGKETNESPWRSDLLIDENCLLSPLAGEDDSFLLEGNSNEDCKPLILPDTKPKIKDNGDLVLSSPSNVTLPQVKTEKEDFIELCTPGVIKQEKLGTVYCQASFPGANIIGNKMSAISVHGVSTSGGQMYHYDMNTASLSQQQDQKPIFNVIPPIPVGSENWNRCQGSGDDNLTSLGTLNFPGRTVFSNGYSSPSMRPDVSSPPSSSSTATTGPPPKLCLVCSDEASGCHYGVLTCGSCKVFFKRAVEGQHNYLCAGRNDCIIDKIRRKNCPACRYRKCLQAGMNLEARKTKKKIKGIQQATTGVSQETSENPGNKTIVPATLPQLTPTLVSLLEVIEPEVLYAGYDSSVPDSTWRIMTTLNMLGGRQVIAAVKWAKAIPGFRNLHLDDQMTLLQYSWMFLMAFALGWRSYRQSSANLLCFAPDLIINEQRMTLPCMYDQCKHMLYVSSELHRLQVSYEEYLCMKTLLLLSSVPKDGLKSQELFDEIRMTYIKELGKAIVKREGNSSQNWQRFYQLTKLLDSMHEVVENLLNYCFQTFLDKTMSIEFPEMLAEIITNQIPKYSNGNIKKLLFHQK

[9] = biological target: Delta-type opioid receptor (Homo sapiens) (UniProt P41143); experiment: SafetyScreen: delta (DOP) Human Opioid GPCR Binding Agonist Radioligand LeadHunter Assay, catalogue number: 114
Delta-type opioid receptor (Homo sapiens), sequence (P41143 whole entry): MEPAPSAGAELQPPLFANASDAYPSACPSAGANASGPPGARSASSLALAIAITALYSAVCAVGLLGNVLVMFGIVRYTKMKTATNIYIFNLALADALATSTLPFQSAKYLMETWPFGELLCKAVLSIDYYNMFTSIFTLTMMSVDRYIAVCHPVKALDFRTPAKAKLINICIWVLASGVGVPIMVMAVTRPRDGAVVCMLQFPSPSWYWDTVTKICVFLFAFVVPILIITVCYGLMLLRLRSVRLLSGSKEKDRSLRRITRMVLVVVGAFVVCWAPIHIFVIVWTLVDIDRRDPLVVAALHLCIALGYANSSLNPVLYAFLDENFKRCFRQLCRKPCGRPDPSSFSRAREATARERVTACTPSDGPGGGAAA

Compound: C[C@H](C(=O)O)[C@@H](NC(=O)c1ncnc2[nH]ccc12)c1ccc(Br)cc1
- inhibition [1]: -1%
- inhibition [2]: 4%
- inhibition [3]: -6%
- inhibition [4]: 7%
- inhibition [5]: -1%
- inhibition [6]: 3%
- inhibition [7]: -4%
- inhibition [8]: 3%

Compound: CC(C)[C@H](Nc1ncnc2[nH]c(-c3cnn(C)c3C#N)cc12)c1ccc2c(n1)OCCO2
- inhibition [1]: 7%
- inhibition [2]: 20%
- inhibition [3]: 9%
- inhibition [4]: -2%
- inhibition [5]: -7%
- inhibition [6]: 7%
- inhibition [9]: 58%
- inhibition [7]: -2%
- inhibition [8]: 11%

Compound: CC(C)[C@@H](Nc1ncnc2[nH]c(-c3cnn(C)c3C#N)cc12)c1ccc2c(n1)OCCO2
- inhibition [1]: 8%
- inhibition [2]: 34%
- inhibition [3]: 4%
- inhibition [4]: -7%
- inhibition [5]: 3%
- inhibition [6]: 9%
- inhibition [9]: 71%
- inhibition [7]: 8%
- inhibition [8]: 22%

Compound: Cc1nn(C)cc1-c1cc2c(N[C@H](c3ccc4c(c3)S(=O)(=O)CCC4)C(C)C)ncnc2[nH]1
- inhibition [1]: 11%
- inhibition [2]: 33%
- inhibition [3]: -2%
- inhibition [4]: 23%
- inhibition [6]: 5%
- inhibition [9]: 16%
- inhibition [7]: 29%
- inhibition [8]: 7%

Compound: Cn1ncc(-c2cc3c(N[C@@H](c4ccc5c(n4)OCCO5)C(C)(C)C)ncnc3[nH]2)c1C#N
- inhibition [1]: 13%
- inhibition [2]: 47%
- inhibition [3]: 27%
- inhibition [4]: -9%
- inhibition [5]: 13%
- inhibition [6]: 11%
- inhibition [9]: 15%
- inhibition [7]: -5%
- inhibition [8]: 28%

Compound: COc1ccc([C@H](Cc2nnn[nH]2)NC(=O)c2ncnc3[nH]ccc23)cc1
- inhibition [1]: -4%
- inhibition [2]: 4%
- inhibition [3]: -5%
- inhibition [4]: -1%
- inhibition [5]: -4%
- inhibition [6]: -1%
- inhibition [7]: 0%
- inhibition [8]: 1%

Compound: CNC(=O)Cn1cc(-c2cc3c(N[C@@H](c4ccc5c(c4)S(=O)(=O)CCC5)C(C)C)ncnc3[nH]2)cn1
- inhibition [1]: 9%
- inhibition [2]: 30%
- inhibition [3]: -7%
- inhibition [4]: 27%
- inhibition [6]: 4%
- inhibition [9]: 7%
- inhibition [7]: 35%
- inhibition [8]: 5%

Compound: CC(C)[C@H](Nc1ncnc2[nH]ccc12)c1ccc2c(c1)S(=O)(=O)CCC2
- inhibition [1]: 19%
- inhibition [2]: 10%
- inhibition [3]: -3%
- inhibition [4]: 23%
- inhibition [6]: 10%
- inhibition [9]: 30%
- inhibition [7]: 4%
- inhibition [8]: 10%

Compound: CC(C)[C@@H](Nc1ncnc2[nH]c(C(=O)N[C@@H]3CCN(C)C3)cc12)c1ccc2c(c1)S(=O)(=O)CCC2
- inhibition [1]: 17%
- inhibition [2]: 15%
- inhibition [3]: -1%
- inhibition [4]: 4%
- inhibition [5]: -7%
- inhibition [6]: 6%
- inhibition [7]: 38%
- inhibition [8]: 11%

Compound: CNCc1cc(-c2cc3c(N[C@@H](c4ccc5c(c4)S(=O)(=O)CCC5)C(C)C)ncnc3[nH]2)co1
- inhibition [1]: 47%
- inhibition [2]: 68%
- inhibition [3]: 39%
- inhibition [4]: 24%
- inhibition [5]: -9%
- inhibition [6]: 15%
- inhibition [9]: 53%
- inhibition [7]: 28%
- inhibition [8]: 21%
